Reference: article PMC6084503, “Pyrrolo[3,2-c]pyridine derivatives with potential inhibitory effect against FMS kinase: in vitro biological studies” (Journal of Enzyme Inhibition and Medicinal Chemistry, 2018)

Key:
FMS kinase = molecular target: T1, FMS kinase (Homo sapiens, UniProt P07333); test: Kinase HotSpot cell-free enzyme assay, FMS kinase; type: biochemical; conditions: for IC50: 10-dose duplicate assay, mean ± SEM, starting with 81 µM, threefold serial dilution, read-out: IC50 against FMS kinase
T1 construct: purchased Reaction Biology Corp
Procedure: Reaction Biology Corp. Kinase HotSpot^SM service [http://www.reactionbiology.com] was utilised for screening of the target compounds as per the protocol reported in the literature.
Compounds 1a–r were tested in a 10-dose testing mode starting with 81 µM, threefold serial dilutions, against FMS kinase in a cell-free enzyme assay. […] This can be due to occupancy of a hydrophobic pocket with that additional benzoyl moiety and/or formation of additional hydrogen bond by the carbonyl oxygen.

T1 sequence (P07333 20-972): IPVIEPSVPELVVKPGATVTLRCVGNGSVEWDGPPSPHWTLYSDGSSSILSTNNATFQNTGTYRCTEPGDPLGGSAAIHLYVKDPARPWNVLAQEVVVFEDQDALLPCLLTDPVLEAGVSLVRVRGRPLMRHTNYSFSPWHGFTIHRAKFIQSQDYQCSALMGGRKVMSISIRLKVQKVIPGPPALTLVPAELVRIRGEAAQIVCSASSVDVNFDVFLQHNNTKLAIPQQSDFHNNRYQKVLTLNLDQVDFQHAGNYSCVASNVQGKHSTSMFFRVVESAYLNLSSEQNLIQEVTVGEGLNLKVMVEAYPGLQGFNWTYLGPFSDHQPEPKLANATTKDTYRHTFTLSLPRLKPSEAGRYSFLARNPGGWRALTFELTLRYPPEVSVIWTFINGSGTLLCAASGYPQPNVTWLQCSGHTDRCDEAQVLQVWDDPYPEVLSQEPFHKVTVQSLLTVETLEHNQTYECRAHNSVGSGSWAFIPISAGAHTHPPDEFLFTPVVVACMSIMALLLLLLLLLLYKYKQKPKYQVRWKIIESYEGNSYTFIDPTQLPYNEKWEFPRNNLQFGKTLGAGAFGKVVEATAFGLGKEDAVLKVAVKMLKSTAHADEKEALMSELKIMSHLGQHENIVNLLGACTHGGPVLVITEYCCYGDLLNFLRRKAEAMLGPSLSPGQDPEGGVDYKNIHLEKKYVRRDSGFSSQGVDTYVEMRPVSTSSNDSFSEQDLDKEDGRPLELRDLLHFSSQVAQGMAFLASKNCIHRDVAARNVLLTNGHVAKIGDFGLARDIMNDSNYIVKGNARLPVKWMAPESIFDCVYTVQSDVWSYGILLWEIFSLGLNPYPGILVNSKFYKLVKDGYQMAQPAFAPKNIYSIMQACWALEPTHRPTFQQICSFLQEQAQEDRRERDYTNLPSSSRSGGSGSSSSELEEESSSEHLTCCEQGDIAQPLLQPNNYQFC

| Structure (SMILES) | IC50 (FMS kinase) [nM] | melting point | Potency against FMS kinase relative to KIST101029 (FMS kinase; ratio of IC50 values, more potent than lead compound KIST101029) [times] |
| --- | --- | --- | --- |
| O=C(Nc1ccc(-n2ccc3c(NC(=O)c4ccccc4)nccc32)cc1)Nc1ccc(Cl)c(C(F)(F)F)c1 [Compound 1c] | 390 ± 20 | – | – |
| O=C(Nc1cccc(-n2ccc3c(NC(=O)c4ccccc4)nccc32)c1)Nc1ccc(Cl)c(C(F)(F)F)c1 [Compound 1d] | 2470 ± 30 | 143 to 145 °C | – |
| O=C(Nc1ccc(-n2ccc3c(NC(=O)c4ccccc4)nccc32)cc1)Nc1cc(C(F)(F)F)cc(C(F)(F)F)c1 [Compound 1e] | 60 ± 10 | > 280 °C | 1.6 |
| O=C(Nc1ccc(-n2ccc3c(NC(=O)c4ccccc4)nccc32)cc1)c1ccc(Cl)c(Cl)c1 [Compound 1f] | > 81000 | – | – |
| O=C(Nc1cccc(-n2ccc3c(NC(=O)c4ccccc4)nccc32)c1)c1ccc(Cl)c(Cl)c1 [Compound 1g] | 1270 ± 70 | – | – |
| O=C(Nc1ccc(-n2ccc3c(NC(=O)c4ccccc4)nccc32)cc1)c1cccc(C(F)(F)F)c1 [Compound 1h] | 10800 ± 600 | – | – |
| O=C(Nc1cccc(-n2ccc3c(NC(=O)c4ccccc4)nccc32)c1)c1cccc(C(F)(F)F)c1 [Compound 1i] | > 81000 | 142 to 144 °C | – |
| O=C(Nc1ccc(-n2ccc3c(NC(=O)c4ccccc4)nccc32)cc1)c1ccc(N2CCOCC2)c(C(F)(F)F)c1 [Compound 1j] | 33100 ± 450 | – | – |
| Nc1nccc2c1ccn2-c1ccc(NC(=O)Nc2ccc(Cl)c(C(F)(F)F)c2)cc1 [Compound 1l] | 3200 ± 70 | > 280 °C | – |
| Nc1nccc2c1ccn2-c1ccc(NC(=O)Nc2cc(C(F)(F)F)cc(C(F)(F)F)c2)cc1 [Compound 1m] | 1450 ± 30 | – | – |
| Nc1nccc2c1ccn2-c1ccc(NC(=O)c2ccc(Cl)c(Cl)c2)cc1 [Compound 1n] | > 81000 | – | – |
| Nc1nccc2c1ccn2-c1cccc(NC(=O)c2ccc(Cl)c(Cl)c2)c1 [Compound 1o] | 40700 ± 2400 | > 280 °C | – |
| Nc1nccc2c1ccn2-c1ccc(NC(=O)c2ccc(N3CCOCC3)c(C(F)(F)F)c2)cc1 [Compound 1p] | 100 ± 30 | 253 to 256 °C (dec.) | – |
